Results on two molecules are retold here after publication PMC3469756 (Journal of medicinal chemistry, 2012).

For one data set, the system named is PDE1C. The settings on record: PDE9 versus PDE1C, cited from earlier work.
The data set “crystal structure” concerns the molecule itself. Briefly: crystal structure.

Like-named read-outs stand apart in the source and are kept apart here.

Regarding `C[C@@H]1CN(Cc2ncccn2)C[C@H]1c1nc2c(cnn2C2CCOCC2)c(=O)[nH]1` [compound 9, 6-[(3S,4S)-4-methyl-1-(pyrimidin-2-ylmethyl)pyrrolidin-3-yl]-1-(tetrahydro-2H-pyran4-yl)-1,5-dihydro-4H-pyrazolo[3,4-d]pyrimidin-4-one], the “selectivity against PDE1C” value in the data set with PDE1C is listed as 170 fold; in the data set on PDE1C (listed as PF-04447943), “about 170 fold”.

B1: PDE9A2 catalytic domain (residues 181-506) (domain or fragment, UniProt O76083-2 181-506, looked up)
chain: PTYPKYLLSPETIEALRKPTFDVWLWEPNEMLSCLEHMYHDLGLVRDFSINPVTLRRWLFCVHDNYRNNPFHNFRHCFCVAQMMYSMVWLCSLQEKFSQTDILILMTAAICHDLDHPGYNNTYQINARTELAVRYNDISPLENHHCAVAFQILAEPECNIFSNIPPDGFKQIRQGMITLILATDMARHAEIMDSFKEKMENFDYSNEEHMTLLKMILIKCCDISNEVRPMEVAEPWVDCLLEEYFMQSDREKSEGLPVAPFMDRDKVTKATAQIGFIKFVLIPMFETVTKLFPMVEEIMLQPLWESRDRYEELKRIDDAMKELQKK
Take B1: the binding result in the data set “crystal structure” was “binds”.
